The record followed here is paper PMC2710136 (Biochemistry, 2009).

Ends that are not written are not given here.

Holding throughout (settings): SD
In one assay the target is nSH3 domain of Grb2 (Homo sapiens, UniProt P62993). The experiment in a line: ITC binding of Sos1 peptides to wildtype nSH3 domain of Grb2.
The next assay has as its target cSH3 domain of Grb2 (Homo sapiens, UniProt P62993). The experiment in a line: ITC binding of Sos1 peptides to wildtype cSH3 domain of Grb2.
For assay [1], the target named is cSH3_D190A mutant domain of Grb2 (Homo sapiens, UniProt P62993, D190A). Nature of the assay: ITC binding of Sos1 peptides to cSH3_D190A mutant domain.
For assay [2], the target named is nSH3_D33A mutant domain of Grb2 (Homo sapiens, UniProt P62993, D33A). The experiment in a line: ITC binding of Sos1 peptides to nSH3_D33A mutant domain.
Assay [3] has as its target cSH3_D187A mutant domain of Grb2 (Homo sapiens, UniProt P62993, D187A). Nature of the assay: ITC binding of Sos1 peptides to cSH3_D187A mutant domain.
Assay [4] has as its target nSH3_E31A mutant domain of Grb2 (Homo sapiens, UniProt P62993, E31A). The experiment in a line: ITC binding of Sos1 peptides to nSH3_E31A mutant domain.

Sequence of nSH3 domain of Grb2 (P62993 1-58 limits assumed): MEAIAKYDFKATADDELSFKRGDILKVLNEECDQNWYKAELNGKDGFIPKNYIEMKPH
Sequence of cSH3 domain of Grb2 (P62993 156-215 limits assumed): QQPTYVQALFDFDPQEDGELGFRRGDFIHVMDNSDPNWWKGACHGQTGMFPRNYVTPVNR
Sequence of nSH3_D33A mutant domain of Grb2 (P62993 1-58 D33A limits assumed): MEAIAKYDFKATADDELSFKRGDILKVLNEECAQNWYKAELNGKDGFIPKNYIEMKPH
Sequence of cSH3_D190A mutant domain of Grb2 (P62993 156-215 D190A limits assumed): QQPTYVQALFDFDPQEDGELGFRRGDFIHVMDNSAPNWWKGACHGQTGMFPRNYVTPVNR
Sequence of nSH3_E31A mutant domain of Grb2 (P62993 1-58 E31A limits assumed): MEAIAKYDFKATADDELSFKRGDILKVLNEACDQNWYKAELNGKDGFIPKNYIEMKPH
Sequence of cSH3_D187A mutant domain of Grb2 (P62993 156-215 D187A limits assumed): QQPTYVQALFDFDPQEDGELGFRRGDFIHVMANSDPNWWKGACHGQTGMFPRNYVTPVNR

Usually Kd stands for the free concentration of one partner at which half of the binding sites on the other are occupied at equilibrium, for simple one-to-one binding. The low end stands for higher affinity, the high end for lower affinity. On to DSPPAIPPRQPT [Peptide S2], for which the figures for the Kd at nSH3 domain of Grb2 and at cSH3 domain of Grb2 were 56 ± 5 µM and 1400 ± 87 µM, respectively.
In the case of ESPPLLPPREPV [Peptide S3], the Kd on nSH3 domain of Grb2 turned out to be 117 ± 2 µM; on cSH3 domain of Grb2, 1720 ± 33 µM.
In the case of IAGPPVPPRQST [Peptide S4], the Kd at nSH3 domain of Grb2 was determined as 82 ± 1 µM; on cSH3 domain of Grb2, 1320 ± 44 µM.
PVPPPVPPAAAP [Peptide S1_AAA]: the Kd on nSH3 domain of Grb2 was determined as 2560 ± 335 µM; at cSH3 domain of Grb2 it was 3090 ± 121 µM.
Taken in the same sequence, the figures for PVPPPVPPARRP [S1_R+5A] were 490 ± 20 µM and 962 ± 26 µM.
Turning to PVPPPVPPRAAP [Peptide S1_AA], the Kd at nSH3 domain of Grb2 stood at 84 ± 1 µM; at cSH3 domain of Grb2 it was 1570 ± 27 µM.
With PVPPPVPPRARP [S1_R+6A], the Kd at nSH3 domain of Grb2 came to 53 ± 1 µM; in assay [1] it was 910 ± 57 µM; in assay [2], 137 ± 7.6 µM; in assay [3] it was 544 ± 102 µM; on cSH3 domain of Grb2 it was 331 ± 2 µM; in assay [4], 67 ± 0.3 µM.
Turning to PVPPPVPPRRAP [S1_R+7A], the Kd on nSH3 domain of Grb2 worked out at 72 ± 1 µM; in assay [1], 482 ± 47 µM; in assay [2], 169 ± 4.5 µM; in assay [3], 2390 ± 73 µM; on cSH3 domain of Grb2, 318 ± 23 µM; in assay [4], 91 ± 1.2 µM.
